Inhibition data for ten compounds are collected here from patent US20100234351A1, “FUSED NITROGEN-COMPRISING HETEROCYCLIC COMPOUND” (TAKEDA PHARMACEUTICAL COMPANY LIMITED, priority 2006, published 2010).

Where a name gives a salt, the structure may show the parent alone.

The target in the assay is T1, HER2 intracellular domain (Homo sapiens, UniProt P04626).
T1 construct: made in house; host or cells: SF-21 insect cells infected with recombinant baculovirus BAC-HER2
T1 sequence (P04626 676-1255): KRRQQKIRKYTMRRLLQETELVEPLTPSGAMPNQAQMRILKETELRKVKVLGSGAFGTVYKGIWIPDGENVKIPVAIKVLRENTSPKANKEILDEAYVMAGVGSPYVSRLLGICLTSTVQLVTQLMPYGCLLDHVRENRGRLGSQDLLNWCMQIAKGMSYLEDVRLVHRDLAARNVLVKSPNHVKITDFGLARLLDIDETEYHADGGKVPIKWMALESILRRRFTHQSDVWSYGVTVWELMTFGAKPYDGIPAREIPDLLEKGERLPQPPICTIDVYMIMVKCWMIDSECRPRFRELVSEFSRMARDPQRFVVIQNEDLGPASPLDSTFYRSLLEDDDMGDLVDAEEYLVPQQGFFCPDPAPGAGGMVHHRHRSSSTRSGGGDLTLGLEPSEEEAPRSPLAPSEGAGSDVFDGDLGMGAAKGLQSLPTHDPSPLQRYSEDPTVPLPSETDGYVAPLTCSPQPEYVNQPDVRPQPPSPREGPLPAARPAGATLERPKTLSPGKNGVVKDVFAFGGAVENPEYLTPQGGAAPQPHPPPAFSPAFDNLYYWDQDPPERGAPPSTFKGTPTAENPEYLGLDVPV
Put plainly: Measurement of HER2 kinase inhibitory activity. Format: biochemical. As to conditions: compound 1.0 μM, poly-Glu:Tyr (4:1) substrate, [γ-32P]ATP, read-out: Inhibitory rate (%) at 1.0 μM. Here is the method: Human HER2 gene was cloned by RT-PCR using total RNA prepared from MCF7 cells as a template. The primer used for RT-PCR was prepared from base sequence (Genbank Accession No. M11730) information of HER2 gene, adding base sequence encoding DYKDDDD peptide and a restriction enzyme recognition sequence to a nucleotide sequence (2176-3918 of Genbank Accession No. M11730 as a base, and corresponding to 676-1255 amino acid of Genbank Accession No. NP_004439 as a protein) encoding the HER2 intracellular domain region, so that a DYKDDDD peptide tag would be attached to the N-terminus of the protein. The base sequence of the primer is shown in below.
The RT reaction was performed using Superscript First-Strand Synthesis System for RT-PCR (Invitrogen) and the PCR reaction was performed using KOD-plus kit (TOYOBO). The obtained PCR product was electrophoresed on agarose gel (1%), and the DNA fragment amplified by PCR was recovered from the gel, and then digested with restriction enzymes Sal I and Sph I. The DNA treated with the restriction enzymes was electrophoresed on agarose gel (1%), and the obtained DNA fragment was recovered and ligated to plasmid pFASTBAC1 (Invitrogen) digested with restriction enzymes Sal I and Sph I to give expression plasmid pFB-HER2. The base sequence of the inserted fragment was confirmed and found to be identical with the base sequence of HER2 intracellular domain (2176-3918 of Genbank Accession M11730). Furthermore, using BAC-TO-BAC Baculovirus Expression System (Invitrogen), recombinant baculovirus BAC-HER2 was prepared.
SF-21 cells were sown at 1×10^6 cells/mL to 1 L of Sf-900II SFM medium (Invitrogen) containing 10% fetal calf serum (trace), 50 mg/L gentamicin (Invitrogen) and 0.1% Pluronic F-68 (Invitrogen), and cultured with shaking in 2 L volume Erlenmeyer flask at 27° C., 100 rpm. After culturing for 24 hr, recombinant baculovirus BAC-HER2 (13.4 mL) was added thereto, and the cells were further cultured for 3 days. The culture medium was centrifuged at 2,000 rpm for 5 min to give virus-infected cells. The infected cells were washed with phosphate buffered saline (Invitrogen), centrifuged under the same conditions, and preserved at −80° C. The cryopreserved cells were thawed in ice and suspended in buffer A (50 mM Tris buffer (30 mL, pH 7.4) containing 20% glycerol, 0.15 M NaCl) supplemented with Complete Protease Inhibitor (Boehringer). The cells were ruptured 3 times with a Polytron homogenizer (Kinematica) at 20,000 rpm for 30 sec. The disrupt was clarified by centrifugation at 40,000 rpm for 30 min and filtered with a 0.45 μm filter. The filtrate was passed through a column packed with Anti-FLAG M2 Affinity Gel (4 mL, Sigma Aldrich CO.) at a flow rate of about 0.5 mL/min. The column was washed with buffer A, and eluted with buffer A containing 100 μg/mL of FLAG peptide. The eluate was concentrated with Vivaspin 20 (Vivascience) having a molecular weight cut off of 30K. The concentrate was purified by gel filtration using Hi-Load 16/60 Superdex 200pg (GE Healthcare Bioscience) equilibrated with buffer A. The fractions containing HER2 intracellular domain were collected and cryopreserved at −80° C.
HER2 kinase reaction was carried out using 96-well plate. As a buffer for Kinase reaction, a buffer of a composition of 50 mM Tris-HCl (pH 7.5), 5 mM MnCl2, 2 mM dithiothreitol and 0.01% Tween-20 was used. The compound of the present invention was dissolved in dimethyl sulfoxide (DMSO), and diluted with a buffer for kinase reaction so that the DMSO concentration would become 0.1% during kinase reaction. The compound solution (10 μL) was mixed with a buffer for kinase reaction (20 μL) containing the HER2 intracellular domain (0.625 μg/mL) obtained in Experimental Example 1B and a polypeptide substrate poly-Glu:Tyr (4:1) (12.5 μg/mL, Sigma Ltd.) and the mixture was stood for 5 min at room temperature. […]
For the compound `COC(=O)C1=Cc2c(ncnc2Nc2ccc(Oc3cccc(C(=O)NC(C)(C)C)c3)c(Cl)c2)NCC1` [Example 135, methyl 4-[(4-{3-[(tert-butylamino)carbonyl]phenoxy}-3-chlorophenyl)amino]-8,9-dihydro-7H-pyrimido[4,5-b]azepine-6-carboxylate], the inhibition at 1 µM was 97%.

Consider `CC(C)(C)OC(=O)N1CCC(Oc2ccc(Nc3ncnc4c3C=C(CO)CCN4)cc2Cl)CC1` [Example 146, tert-butyl 4-(2-chloro-4-{[6-(hydroxymethyl)-8,9-dihydro-7H-pyrimido[4,5-b]azepin-4-yl]amino}phenoxy)piperidine-1-carboxylate], for which the inhibition at 1 µM stood at 92%.

Regarding `CC(C)(CS(=O)(=O)CCO)NC(=O)C1=Cc2c(ncnc2Nc2ccc(Oc3cccc(C(F)(F)F)c3)c(Cl)c2)NCC1` [Example 172, 4-({3-chloro-4-[3-(trifluoromethyl)phenoxy]phenyl}amino)-N-{2-[(2-hydroxyethyl)sulfonyl]-1,1-dimethylethyl}-8,9-dihydro-7H-pyrimido[4,5-b]azepine-6-carboxamide], the inhibition at 1 µM amounted to 95%.

Take `CC(C)(C)NC(=O)c1cccc(Oc2ccc(Nc3ncnc4c3C=C(CNC(C)(C)CS(=O)(=O)CCO)CCN4)cc2Cl)c1` [Example 214, N-(tert-butyl)-3-[2-chloro-4-({6-[({2-[(2-hydroxyethyl)sulfonyl]-1,1-dimethylethyl}amino)methyl]-8,9-dihydro-7H-pyrimido[4,5-b]azepin-4-yl}amino)phenoxy]benzamide dihydrochloride]: the inhibition at 1 µM is 99%.

Regarding `COC(=O)C1=Cc2c(ncnc2Nc2cnc(Oc3cccc(C(=O)NC(C)(C)C)c3)c(Cl)c2)NCC1` [Example 220, methyl 4-[(6-{3-[(tert-butylamino)carbonyl]phenoxy}-5-chloropyridin-3-yl)amino]-8,9-dihydro-7H-pyrimido[4,5-b]azepine-6-carboxylate], the inhibition at 1 µM stood at 96%.

Regarding `CC(C)(CS(=O)(=O)CCO)NC(=O)C1=Cc2c(ncnc2Nc2ccc(Oc3cccc(S(=O)(=O)CC4CC4)c3)c(Cl)c2)NCC1` [Example 227, 4-[(3-chloro-4-{3-[(cyclopropylmethyl)sulfonyl]phenoxy}phenyl)amino]-N-{2-[(2-hydroxyethyl)sulfonyl]-1,1-dimethylethyl}-8,9-dihydro-7H-pyrimido[4,5-b]azepine-6-carboxamide], the inhibition at 1 µM is 93%.

Consider `CC(C)(C)NC(=O)c1cccc(Oc2ccc(Nc3ncnc4c3C=C(/C=N/OCCO)CCN4)cc2Cl)c1` [Example 231, N-(tert-butyl)-3-{2-chloro-4-[(6-{[(2-hydroxyethoxy)imino]methyl}-8,9-dihydro-7H-pyrimido[4,5-b]azepin-4-yl)amino]phenoxy}benzamide], for which the inhibition at 1 µM is 97%.

Take `CC(C)(C)NC(=O)c1cccc(Oc2ccc(Nc3ncnc4c3C=C(CNCCF)CCN4)cc2Cl)c1` [Example 234, N-(tert-butyl)-3-{2-chloro-4-[(6-{[(2-fluoroethyl)amino]methyl}-8,9-dihydro-7H-pyrimido[4,5-b]azepin-4-yl)amino]phenoxy}benzamide]: the inhibition at 1 µM turned out to be 98%.

With `CN(CCS(C)(=O)=O)CC1=Cc2c(ncnc2Nc2ccc(Oc3cccc(C(=O)NC(C)(C)C)c3)c(Cl)c2)NCC1` [Example 242, N-(tert-butyl)-3-(2-chloro-4-{[6-({methyl[2-(methylsulfonyl)ethyl]amino}methyl)-8,9-dihydro-7H-pyrimido[4,5-b]azepin-4-yl]amino}phenoxy)benzamide], the inhibition at 1 µM worked out at 99%.

On to `CCOC(=O)/C=C/C1=Cc2c(ncnc2Nc2ccc(Oc3cccc(C(=O)NC(C)(C)C)c3)c(Cl)c2)NCC1` [Example 246, ethyl (2E)-3-{4-[(4-{3-[(tert-butylamino)carbonyl]phenoxy}-3-chlorophenyl)amino]-8,9-dihydro-7H-pyrimido[4,5-b]azepin-6-yl}acrylate], for which the inhibition at 1 µM was 98%.
